Experimental data as given in US8592422B2, “Bicyclic triazole and pyrazole lactams as allosteric modulators of mGluR5 receptors” (Vanderbilt University, priority 2010, dated 2013).

Biological target: T1, human mGluR5a receptor (Homo sapiens, UniProt P41594)
T1 construct: cDNA subcloned into pcDNA3.1(-)
Assay: Cell-based functional Ca2+ mobilization assay (FDSS), potentiation of glutamate EC20 response
Conditions: for pEC50 / EC50: HEK cells transfected with human mGluR5 (H10H or H12H), in presence of EC20 glutamate; for EC50: read-out: EC50; for Emax (%) / Emax: maximum % effect in concentration-response curve, as percent of response to maximally effective glutamate
Description: Human embryonic kidney (HEK) cells transfected with rat mGluR5 were plated in clear bottom assay plates for assay in a Functional Drug Screening System (FDSS). In the alternative assay, HEK cells transfected with human mGluR5 were plated for assay in the FDSS. In some cases the HEK cells transfected with human mGluR5 were the H10H cell line. Alternatively, the HEK cells transfected with human mGluR5 were the H12H cell line. […] The cells were loaded with a Ca^2+-sensitive fluorescent dye (e.g., Fluo-4), and the plates were washed and placed in the FDSS instrument. After establishment of a fluorescence baseline for twelve seconds, the compounds of the present invention were added to the cells, and the response in cells was measured. Alternatively, in various further aspects, after establishment of a fluorescence baseline for about three seconds, the compounds of the present invention were added to the cells, and the response in cells was measured. Five minutes later, an mGluR5 agonist (e.g., glutamate, 3,5-dihydroxyphenylglycine, or quisqualate) was added to the cells, and the response of the cells was measured.
The above described assay operated in two modes. In the first mode, a range of concentrations of the present compounds were added to cells, followed by a single fixed concentration of agonist. If a compound acted as a potentiator, an EC50 value for potentiation and a maximum extent of potentiation by the compound at this concentration of agonist was determined by non-linear curve fitting. In the second mode, several fixed concentrations of the present compounds were added to various wells on a plate, followed by a range of concentrations of agonist for each concentration of present compound; the EC50 values for the agonist at each concentration of compound were determined by non-linear curve fitting. A decrease in the EC50 value of the agonist with increasing concentrations of the present compounds (a leftward shift of the agonist concentration-response curve) is an indication of the degree of mGluR5 potentiation at a given concentration of the present compound. An increase in the EC50 value of the agonist with increasing concentrations of the present compounds (a rightward shift of the agonist concentration-response curve) is an indication of the degree of mGluR5 antagonism at a given concentration of the present compound. The second mode also indicates whether the present compounds also affect the maximum response to mGluR5 to agonists.
The mGluR5 activity was determined using the metabotropic glutamate receptor activity assays in human embryonic kidney cells as described herein, wherein the human embryonic kidney cells were transfected with human mGluR5. The compounds in Table 1 were synthesized with methods identical or analogous to those shown herein. The requisite starting materials were commercially available, described in the literature, or readily synthesized by one skilled in the art of organic synthesis. The compound number given in Table I corresponds to the compound number in Table II and the structure given therein.
Human mGluR5a cDNA in pCMV6-XL6 mammalian expression plasmid was purchased from OriGene Technologies, Inc. (catalogue number SC326357) and subcloned into pcDNA3.1(−). Human embryonic kidney (HEK) 293A cells were then transfected with human mGluR5a pcDNA3.1(−) using LipofectAmine-2000 (Invitrogen) and monoclones were selected and tested for functional response using a Ca^2+ mobilization assay. Monoclones were named for the species (“H” for human) plus the location on the plate (e.g. “10H”).
HEK cells transfected with the human mGluR5a receptor (H10H or H12H cell line) were plated at 15,000 cells/well in clear-bottomed poly-D-lysine-coated assay plates (BD Falcon) in glutamate-glutamine-free growth medium and incubated overnight at 37° C. and 5% CO2.

T1 sequence (P41594 21-1180 isoform P41594-2 limits assumed): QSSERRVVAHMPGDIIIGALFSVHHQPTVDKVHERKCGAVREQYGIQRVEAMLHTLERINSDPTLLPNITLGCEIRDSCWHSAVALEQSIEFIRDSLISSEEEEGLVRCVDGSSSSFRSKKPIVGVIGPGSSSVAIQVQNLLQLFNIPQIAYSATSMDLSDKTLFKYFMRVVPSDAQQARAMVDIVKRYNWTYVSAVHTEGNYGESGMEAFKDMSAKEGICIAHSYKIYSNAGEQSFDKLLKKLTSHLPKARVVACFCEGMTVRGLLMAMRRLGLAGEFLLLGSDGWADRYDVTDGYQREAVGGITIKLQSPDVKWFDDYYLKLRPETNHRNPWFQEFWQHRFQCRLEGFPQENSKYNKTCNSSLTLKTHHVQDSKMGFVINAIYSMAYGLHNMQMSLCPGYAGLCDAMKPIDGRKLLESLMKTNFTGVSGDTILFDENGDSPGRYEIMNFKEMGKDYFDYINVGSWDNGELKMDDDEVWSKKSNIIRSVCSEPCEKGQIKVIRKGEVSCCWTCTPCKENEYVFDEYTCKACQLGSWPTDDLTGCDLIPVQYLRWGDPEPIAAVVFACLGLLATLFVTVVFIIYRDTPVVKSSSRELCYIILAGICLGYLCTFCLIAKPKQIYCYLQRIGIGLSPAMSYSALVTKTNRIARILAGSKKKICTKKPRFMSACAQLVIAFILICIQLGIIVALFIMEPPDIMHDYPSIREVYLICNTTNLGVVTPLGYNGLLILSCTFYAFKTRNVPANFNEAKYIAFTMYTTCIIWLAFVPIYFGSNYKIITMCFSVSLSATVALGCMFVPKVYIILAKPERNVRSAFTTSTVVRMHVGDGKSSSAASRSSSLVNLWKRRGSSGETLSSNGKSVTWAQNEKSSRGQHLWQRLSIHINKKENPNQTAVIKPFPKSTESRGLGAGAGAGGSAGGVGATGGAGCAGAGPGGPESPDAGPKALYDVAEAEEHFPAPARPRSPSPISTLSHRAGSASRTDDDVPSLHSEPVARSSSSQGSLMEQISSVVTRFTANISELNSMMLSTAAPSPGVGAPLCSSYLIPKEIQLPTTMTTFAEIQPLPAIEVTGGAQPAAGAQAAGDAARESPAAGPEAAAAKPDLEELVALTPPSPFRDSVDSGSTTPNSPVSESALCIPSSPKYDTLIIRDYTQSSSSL

pEC50 | EC50 | Emax (%) | Emax | SMILES
<5.00 | > 10000 nM | 45% |  | O=C1c2cc(COc3cccnc3)nn2CCN1CC1CC1 [Example 170]
5.99 | 1020 nM | 64% |  | O=C1c2cc(COc3ccccn3)nn2CCN1c1ccc(F)cn1 [Example 172]
<5.00 | > 10000 nM | 31% |  | Cc1cccc(OCc2cc3n(n2)CCN(c2ccc(F)cc2)C3=O)n1 [Example 173]
 | > 30200 nM |  | 22% | Cc1cc(OCc2cc3n(n2)CCN(c2ccc(F)cc2)C3=O)cc(C)n1 [Example 175]
5.75 | 1780 nM | 64% |  | O=C1c2cc(COc3ccncc3)nn2CCN1c1ccc(F)cn1 [Example 176]
6.42 | 380 nM | 61% |  | Cc1cccc(OCc2cc3n(n2)CCN(c2ccc(F)cn2)C3=O)c1 [Example 177]
5.77 | 1700 nM | 53% |  | Cc1cc(OCc2cc3n(n2)CCN(c2ccc(F)cc2)C3=O)ncc1F [Example 180]
5.49 | 3240 nM | 36% |  | Cc1nccc(OCc2cc3n(n2)CCN(c2ccc(F)cc2)C3=O)n1 [Example 182]
6.45 | 355 nM | 61% |  | Cc1ccnc(OCc2cc3n(n2)CCN(c2ccc(F)cc2)C3=O)c1 [Example 184]
<4.52 | > 30200 nM | 30% |  | Cc1ccnc(OCc2cc3n(n2)CCN(c2ccc(F)cc2)C3=O)n1 [Example 186]
6.83 | 148 nM | 66% |  | O=C1c2cc(COc3cccc(F)c3)nn2CCN1c1ccc(F)cc1 [Example 188]
 | 240 nM |  | 57% | Cc1ccc(OCc2cc3n(n2)CCN(c2ccc(F)cc2)C3=O)cc1 [Example 192]
<5.00 | > 10000 nM | 37% |  | Cc1cc(OCc2cc3n(n2)CCN(c2ccc(F)cc2)C3=O)ncn1 [Example 196]
5.76 | 1740 nM | 61% |  | Cc1ccnc(OCc2cc3n(n2)CCN(c2ccc(F)cc2)C3=O)c1F [Example 198]
5.43 | 3720 nM | 60% |  | O=C1c2cc(COc3ccncn3)nn2CCN1c1ccc(F)cc1 [Example 199]
<5.00 | > 10000 nM | 46% |  | O=C1c2cc(COc3ccnnc3)nn2CCN1c1ccc(F)cc1 [Example 201]
6.78 | 166 nM | 66% |  | Cc1cc(N2CCn3nc(COc4ccccn4)cc3C2=O)ccc1F [Example 203]
6.41 | 389 nM | 55% |  | Cc1nc(N2CCn3nc(COc4ccccn4)cc3C2=O)ccc1F [Example 205]
6.36 | 437 nM | 69% |  | CC(C)c1cccc(N2CCn3nc(COc4ccccn4)cc3C2=O)n1 [Example 207]
6.46 | 347 nM | 69% |  | COc1ccc(F)c(N2CCn3nc(COc4ccccn4)cc3C2=O)n1 [Example 208]
 | 525 nM |  | 62% | COc1nc(N2CCn3nc(COc4ccccn4)cc3C2=O)ncc1F [Example 209]
 | 2140 nM |  | 50% | COc1nccc(N2CCn3nc(COc4ccccn4)cc3C2=O)n1 [Example 210]
 | 660 nM |  | 56% | COc1cncc(N2CCn3nc(COc4ccccn4)cc3C2=O)n1 [Example 213]
5.97 | 1100 nM | 54% |  | COc1ccccc1N1CCn2nc(COc3ccccn3)cc2C1=O [Example 214]

pEC50 | EC50 | Emax (%) | Emax | SMILES
6.39 | 410 nM | 63% |  | Cc1cccc(N2CCn3nc(COc4ccccn4)cc3C2=O)c1 [Example 216]
6.59 | 260 nM | 67% |  | Cc1ccccc1N1CCn2nc(COc3ccccn3)cc2C1=O [Example 219]
7.11 | 76 nM | 64% |  | Cc1ccc(N2CCn3nc(COc4ccc(F)cc4)cc3C2=O)cc1 [Example 222]
7.02 | 95 nM | 72% |  | Cc1cccc(N2CCn3nc(COc4ccc(F)cc4)cc3C2=O)c1 [Example 224]
 | 61 nM |  | 58% | Cc1cc(N2CCn3nc(COc4ccc(F)cc4)cc3C2=O)ccc1F [Example 225]
6.08 | 830 nM | 57% |  | COc1nccnc1N1CCn2nc(COc3ccc(F)cc3)cc2C1=O [Example 226]
6.59 | 260 nM | 62% |  | COc1nccc(N2CCn3nc(COc4ccc(F)cc4)cc3C2=O)n1 [Example 227]
 | 120 nM |  | 65% | COc1cc(N2CCn3nc(COc4ccc(F)cc4)cc3C2=O)ccc1F [Example 228]
6.78 | 170 nM | 72% |  | COc1nc(N2CCn3nc(COc4ccc(F)cc4)cc3C2=O)ncc1C [Example 230]
6.92 | 110 nM | 67% |  | COc1cncc(N2CCn3nc(COc4ccc(F)cc4)cc3C2=O)n1 [Example 231]
7.05 | 89 nM | 68% |  | Cc1cccc(OCc2cc3n(n2)CC(C)N(c2ccc(F)cc2)C3=O)c1 (stereo not drawn) [Example 243]
7.25 | 56 nM | 78% |  | CC1Cn2nc(COc3cccc(F)c3)cc2C(=O)N1c1ccc(F)cc1 (stereo not drawn) [Example 244]
6.86 | 138 nM | 74% |  | CC1Cn2nc(COc3ccc(F)cc3)cc2C(=O)N1c1ccc(F)cc1 (stereo not drawn) [Example 245]
 | 214 nM |  | 69% | C[C@@H]1Cn2nc(COc3cccc(C#N)c3)cc2C(=O)N1c1ccc(F)cc1 [Example 246]
6.23 | 589 nM | 73% |  | CC1Cn2nc(COc3ccccn3)cc2C(=O)N1c1ccc(F)cc1 (stereo not drawn) [Example 247]
<5.00 | > 10000 nM | 46% |  | CC1Cn2nc(COc3ccccc3)cc2C(=O)N1 (stereo not drawn) [Example 255]
<4.52 | > 30200 nM | 14% |  | O=C1c2c(Cl)c(COc3ccccc3)nn2CCN1CC1CC1 [Example 259]
<4.52 | > 30200 nM | 17% |  | O=C1c2c(Cl)c(COc3ccccc3)nn2CCN1c1ccc(F)cc1 [Example 260]
 | > 30200 nM |  | 23% | Cc1c(COc2ccccc2)nn2c1C(=O)N(CC1CC1)CC2 [Example 261]
6.05 | 891 nM | 32% |  | Cc1c(COc2ccccc2)nn2c1C(=O)N(c1ccc(F)cc1)CC2 [Example 262]
5.65 | 2240 nM | 60% |  | O=C1c2cc(COc3ccccc3)nn2CC(CO)N1c1ccc(F)cc1 (stereo not drawn) [Example 265]
6.94 | 115 nM | 65% |  | O=C1c2cc(COc3ccccc3)nn2CC(CF)N1c1ccc(F)cc1 (stereo not drawn) [Example 266]
6.03 | 933 nM | 70% |  | COCC1Cn2nc(COc3ccccc3)cc2C(=O)N1c1ccc(F)cc1 (stereo not drawn) [Example 267]
<5.00 | > 10000 nM | 27% |  | O=C1c2cc(COc3ccccc3)nn2CC(CO)N1c1ccc(F)cc1 (stereo not drawn) [Example 268]
